This is an account of results in PubChem BioAssay (NCI).

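1) Cells in 96-well plates. 2) Compound, 48 h, 5 concentrations. 3) Linear interpolation between surrounding doses. 4) Unreached endpoint = highest concentration. The concentration for 50% growth inhibition is given as GI50. TGI marks complete inhibition of growth.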

Test systems include ACHN renal; IGROV1 ovarian; SF-295 CNS; UACC-62 melanoma; U251 CNS; SR leukemia; BT-549 breast; SNB-75 CNS; MCF7 breast.
Test in all cases: DTP human tumour cell line panel, 48 h

`N#Cc1ccccc1Sc1ccccc1N`: the TGI in the assay on ACHN renal, with IGROV1 ovarian, in the assay on SF-295 CNS, in the assay on UACC-62 melanoma, with U251 CNS and in the assay on SR leukemia was over 100 µM each time.
As to `CCN(CC)CCCC(Nc1c2ccc(Cl)cc2nc2ccc(OC)cc12)c1ccc(Cl)cc1` (stereo not drawn), the GI50 (commonly the concentration at which growth is held to half of that of the control) was 1.7 µM in the assay on BT-549 breast; 1.38 µM in the assay on ACHN renal; 1.16 µM with SNB-75 CNS; 1.3 µM in the assay with SF-295 CNS; 0.348 µM in the assay on MCF7 breast; 0.579 µM in the assay with U251 CNS. In addition, the GI50 with SR leukemia is 0.217 µM. Further, the concentration for total growth inhibition (TGI) (in general, the concentration at which net growth stops) worked out at 3.47 µM with BT-549 breast; 2.81 µM in the assay with ACHN renal; 2.44 µM in the assay with SNB-75 CNS; 2.77 µM in the assay with SF-295 CNS; 1.43 µM with MCF7 breast; 1.83 µM in the assay with U251 CNS. The same compound displayed a total growth inhibition concentration (TGI) in the assay with SR leukemia of 0.512 µM.
`O=C1C=CC2(O)OCC3C=C4O[C@@H]5OC6(CCCCC6)O[C@@H]5C4[C@@H]2[C@@H]13` (stereo partly drawn): the TGI in the assay with ACHN renal is 88.4 µM; in the assay on SNB-75 CNS, over 100 µM; in the assay with IGROV1 ovarian, over 100 µM; in the assay on SF-295 CNS, over 100 µM; in the assay with UACC-62 melanoma, over 100 µM; in the assay with U251 CNS, over 100 µM.
For `CCOC(=O)C1=C(C)N(NC(N)=O)C2(N)N(NC(N)=O)C(C)=C(C(=O)OCC)C12C#N` (stereo not drawn), the concentration for total growth inhibition (TGI) with ACHN renal, with SNB-75 CNS, in the assay with IGROV1 ovarian, in the assay on SF-295 CNS, in the assay with UACC-62 melanoma and in the assay on U251 CNS was over 100 µM each time. Further, in the assay on SR leukemia, the concentration for total growth inhibition (TGI) was over 100 µM.
In the case of `COc1ccccc1/C=C(\NC(=O)c1ccccc1)c1nc2ccc(Cl)cc2[nH]1`, the TGI is 67.8 µM with ACHN renal; 70.7 µM in the assay with SNB-75 CNS; over 100 µM in the assay with IGROV1 ovarian; 55.3 µM in the assay on UACC-62 melanoma; over 100 µM in the assay with U251 CNS.
`Cc1ccc(-n2nc(C(OC3OC(CO)C(O)C(O)C3O)C(O)CO)c3nc4cc(C)c(C)cc4nc32)cc1` (stereo not drawn): the concentration for total growth inhibition (TGI) with ACHN renal, in the assay on SNB-75 CNS, in the assay with SF-295 CNS, in the assay on UACC-62 melanoma and in the assay on U251 CNS was over 100 µM each time.
As to `CC(C)N(C(=O)C12C3C4C1C1C4(C#N)C3C12C(=O)O)C(C)C` (stereo not drawn), the TGI with ACHN renal, in the assay on SNB-75 CNS, with IGROV1 ovarian, in the assay on SF-295 CNS, in the assay on UACC-62 melanoma and in the assay with U251 CNS was over 100 µM throughout. Further, the TGI with SR leukemia came to 41.4 µM.
Consider `CN1CCCc2nc3ccccc3n2C1`, for which the TGI with ACHN renal, with SNB-75 CNS, in the assay on IGROV1 ovarian, in the assay with SF-295 CNS, in the assay with UACC-62 melanoma and in the assay with U251 CNS was over 100 µM in each case.
Regarding `O=c1c2ccccc2nc(-c2cccc(Cl)c2)n1NC1OC(CO)C(O)C(O)C1O` (stereo not drawn), the total growth inhibition concentration (TGI) in the assay on ACHN renal, with SNB-75 CNS, in the assay with IGROV1 ovarian, with SF-295 CNS, in the assay with UACC-62 melanoma and in the assay with U251 CNS was over 100 µM throughout.
For `CO[C@H]1C(=O)[C@]2(C)[C@@H](OC)C[C@H]3OC[C@@]3(OC(C)=O)[C@H]2[C@H](OC(=O)c2ccccc2)[C@]2(O)C[C@H](OC(=O)[C@H](O)[C@@H](NC(=O)OC(C)(C)C)c3ccccc3)C(C)=C1C2(C)C`, the GI50 in the assay on BT-549 breast was under 0.01 µM; in the assay on ACHN renal it was 12.6 µM; with SNB-75 CNS, under 0.01 µM; in the assay on IGROV1 ovarian, under 0.01 µM; in the assay on SF-295 CNS, under 0.01 µM; with MCF7 breast, under 0.01 µM. The results for the GI50 with UACC-62 melanoma, in the assay on U251 CNS and in the assay on SR leukemia were under 0.0147 µM, under 0.01 µM and under 0.01 µM, respectively. Also, the TGI is 26.8 µM in the assay on BT-549 breast; over 100 µM in the assay on ACHN renal; under 0.01 µM with SNB-75 CNS; over 100 µM in the assay on IGROV1 ovarian; 23.9 µM with SF-295 CNS; 20.5 µM with MCF7 breast. The concentration for total growth inhibition (TGI) amounted to 56.8 µM with UACC-62 melanoma and 23.8 µM in the assay with U251 CNS.
For `C[n+]1cn(CC(=O)c2ccccc2)c(C(N)=O)c1N`, the TGI in the assay on ACHN renal, in the assay with SNB-75 CNS, in the assay on IGROV1 ovarian, with SF-295 CNS, in the assay with UACC-62 melanoma and in the assay with U251 CNS was over 100 µM each time. In the assay with SR leukemia, the total growth inhibition concentration (TGI) was over 100 µM.
Regarding `CCCCCCCCCC1CC(=O)OC23CCCC(=O)C12O3` (stereo not drawn), the concentration for total growth inhibition (TGI) with ACHN renal, in the assay on SNB-75 CNS, in the assay with IGROV1 ovarian, in the assay with SF-295 CNS, in the assay on UACC-62 melanoma and with U251 CNS was over 100 µM throughout.
Consider `C=C1C(=O)O[C@@H]2C[C@@]3(C)[C@H](O)CCC(=C)[C@@H]3C[C@H]12`, for which the concentration for total growth inhibition (TGI) with ACHN renal was found to be 27.8 µM; in the assay on SNB-75 CNS, 15.2 µM; with IGROV1 ovarian it was 45.2 µM; in the assay with SF-295 CNS, 27.2 µM; with UACC-62 melanoma it was 19 µM; in the assay with U251 CNS, 26.2 µM. For the same compound, the TGI with SR leukemia stood at 14 µM.
In the case of `Cc1nc2sccn2c1C(=O)NNC(N)=S`, the TGI in the assay with ACHN renal, in the assay on IGROV1 ovarian, in the assay on SF-295 CNS, in the assay with UACC-62 melanoma, with U251 CNS and with SR leukemia was over 100 µM in each case.
Consider `OC1=CN=C(c2ccccc2)Oc2ccccc21`, for which the TGI in the assay on ACHN renal, in the assay on SNB-75 CNS, with IGROV1 ovarian, with SF-295 CNS, in the assay on UACC-62 melanoma and in the assay with U251 CNS was over 100 µM each time.
For the compound `O=C(Nc1ccccc1C(=O)NC(=O)c1ccccc1NC(=O)c1ccccc1)c1ccccc1`, the TGI in the assay with ACHN renal was 36.3 µM; in the assay with SNB-75 CNS, 8.87 µM; in the assay with IGROV1 ovarian it was 5.93 µM; in the assay on SF-295 CNS, 26.6 µM; in the assay with UACC-62 melanoma it was 5.54 µM; in the assay with U251 CNS, 18.8 µM. In the assay on SR leukemia, this compound had a TGI of 8.52 µM.
